According to publication PMC10765869, “Synthesis, design, biological evaluation, and computational analysis of some novel uracil-azole derivatives as cytotoxic agents” (BMC Chemistry, 2024):
Read-outs that look alike come from different tables or passages of the source.

Columns and labels:
[1] = system: HEPG-2 (Hepatocellular carcinoma) cell line; experiment: MTT assay, HEPG-2; assay type: cell-based, human; settings: mean ± SD, triplicate
Excerpt: (§1) The cytotoxic activity of the designed compounds (4a-4l) was obtained by MTT assay (standard 3-(4,5-dimethylthiazol-yl)-2,5-diphenyl-tetrazolium bromide) according to our previous protocols. Two human cancer cell lines including MCF-7 (breast carcinoma) and HEPG-2 (Hepatocellular carcinoma) were purchased from the National Cell Bank of Iran (NCBI, Pasteur Institute, Tehran, Iran). RPMI 1640 culture media was used to culture cancer cell lines. The media was supplemented with 10% fetal bovine serum (FBS) and 1% penicillin–streptomycin (Gibco, USA), and the cells were kept at 37 °C in a humidified CO2 incubator. For the MTT assay, trypsin/EDTA 0.5% solution (Gibco/USA) was applied to harvest cells and seeded in 96-well microplates at a density of 1 × 10^4 cells per well [26]. Five different concentrations of the designed compounds and Cisplatin as the positive control (1–200 μM) were used for treatment in triplicate times. Three untreated wells were used as the negative control. After 72 h, the media was changed by 100 μL fresh MTT solution and incubated for 4 h at 37 °C in the incubator to obtain formazan purple crystals. Finally, the media was removed and 150 μL of DMSO was added and incubated at 37 °C in dark for 10 min to dissolve the crystals. The absorbance of individual wells was read at 490 nm using a microplate ELISA reader. Excel 2016 and Curve Expert 1.4 were used to analyze the data. The data were presented as mean ± SD for each analysis.

[2] = system: MCF-7 (breast carcinoma) cell line; experiment: MTT assay, MCF-7; assay type: cell-based, human; settings: mean ± SD, triplicate
Excerpt: as §1

[3] = system: MCF-7 and HEPG-2 cell lines; experiment: MTT assay, ranges over both cancer cell lines; assay type: cell-based; settings: Homo sapiens; range spans both cell lines
Excerpt: as §1, with “Excel 2016 and Curve Expert 1.4 were used to analyze the data. The data were presented as mean ± SD for each analysis.” left out

[4] = system: normal lung cell line (MRC-5); experiment: MTT assay, MRC-5 normal cells; assay type: cell-based
[5] = system: a studied cancer cell line; parameters: method as in PMID 32736079; settings: cited from earlier work
[6] = system: Huha cell line; parameters: method as in PMID 33808444; settings: cited from earlier work
[7] = system: Hela cell line; parameters: method as in PMID 33808444; settings: cited from earlier work
[8] = Homo sapiens, MRC5, read-out: IC50 ± SD, MRC-5

IC50 ([1]; Homo sapiens, HepG2, 72 h) | melting point | IC50 ([2]; Homo sapiens, MCF7, 72 h) | SMILES | IC50 [4, 8] | further results
65.4 ± 2.15 µM | 125 to 128 °C | 43.1 ± 2.07 µM | Cc1cccc(Cn2c(-n3cncn3)cc(=O)n(C)c2=O)c1 [Compound 4i, 3-methyl-1-(3-methylbenzyl)-6-(H1-1,2,4-triazole-1-yl) pyrimidine-2,4-(H1, H3) dione] | > 200 µM | –
– | 138 to 140 °C | 92 ± 2.19 µM | Cc1nccn1-c1cc(=O)n(C)c(=O)n1Cc1ccccc1 [Compound 4e, 3-methyl-1-(benzyl) 6-(2-methyl-H1-imidazol-1-yl) pyrimidine-2,4-(H1, H3) dione] | > 200 µM | –
106 ± 3.03 µM | 160 to 162 °C | 109 ± 3.74 µM | Cc1nccn1-c1cc(=O)n(C)c(=O)n1Cc1ccc(Br)cc1 [Compound 4g, 3-methyl-1-(4-bromobenzyl)-6-(2-methyl-H1-imidazole-1-yl) pyrimidine-2,4-(H1, H3) dione] | > 200 µM | –
48.5 ± 1.97 µM | 123 to 124 °C | 17.1 ± 1.3 µM | Cc1cccc(Cn2c(-n3ccnc3)cc(=O)n(C)c2=O)c1 [Compound 4b, 3-methyl-1-(3-methylbenzyl)-6-(H1-imidazole-1-yl) pyrimidine-2,4-(H1, H3) dione] | 61.8 ± 2.3 µM | IC50 [3]: 17.1 to 48.5 µM
55.9 ± 6.58 µM | 120 to 122 °C | 65.5 ± 3.1 µM | Cc1ccc(Cn2c(-n3ccnc3C)cc(=O)n(C)c2=O)cc1 [Compound 4f, 3-methyl-1-(4-methylbenzyl)-6-(2-methyl-H1-imidazole-1-yl) pyrimidine-2,4-(H1, H3) dione] | > 200 µM | –
7.56 ± 5.28 µM | 116 to 118 °C | 16.2 ± 1.02 µM | Cc1ccc(Cn2c(-n3cncn3)cc(=O)n(C)c2=O)cc1 [Compound 4j, 3-methyl-1-(4-methylbenzyl)-6-(H1-1,2,4-triazole-1-yl) pyrimidine-2,4-(H1, H3) dione] | 57.3 ± 2.08 µM | –
193 ± 7.98 µM | 138 to 142 °C | 150.5 ± 0.77 µM | Cn1c(=O)cc(-n2ccnc2)n(Cc2ccccc2)c1=O [Compound 4a, 3-methyl-1-(benzyl)-6-(H1-imidazole-1-yl) pyrimidine-2,4-(H1, H3) dione] | > 200 µM | –

Continued, compound first:

SMILES | IC50 ([1]; Homo sapiens, HepG2, 72 h) | melting point | IC50 ([2]; Homo sapiens, MCF7, 72 h) | IC50 [4, 8] | further results
Cc1ccc(Cn2c(-n3ccnc3)cc(=O)n(C)c2=O)cc1 [Compound 4c, 3-methyl-1-(4-methylbenzyl)-6-(H1-imidazole-1-yl) pyrimidine-2,4-(H1, H3) dione] | 27.2 ± 1.66 µM | 100 to 102 °C | 26.1 ± 4.41 µM | 101 ± 3.02 µM | IC50 [3]: 17.1 to 48.5 µM
N.N.[Cl][Pt][Cl] [Cis platin, Cisplatin, reference compound] | – | – | – | – | IC50 ([1]; 72 h): 15.9 ± 1.83 µM; IC50 ([2]; 72 h): 20.7 ± 0.83 µM; IC50 ([4]; read-out: IC50 ± SD, MRC-5): 45.2 ± 2.5 µM
Cn1c(=O)cc(-n2ccnc2)n(Cc2ccc(Br)cc2)c1=O [Compound 4d, 3-methyl-1-(4-bromobenzyl)-6-(H1-imidazole-1-yl) pyrimidine-2,4-(H1, H3) dione] | 177 ± 4.06 µM | 110 to 113 °C | 131 ± 3.1 µM | > 200 µM | –
O=c1[nH]c(=O)n(Cc2ccc(-c3noc(-c4ccc(-c5ccccc5)cc4)n3)cc2)cc1F [A] | – | – | – | – | IC50 [5]: 0.88 µM
Cc1ccc(Cn2cc(Cn3c(Cl)cc(=O)n(C)c3=O)nn2)cc1 [B] | – | – | – | – | IC50 [6]: 7.7 µM; IC50 [7]: 4.5 µM
Cn1c(=O)cc(-n2cncn2)n(Cc2ccccc2)c1=O [Compound 4h, 3-methyl-1-(benzyl)-6-(H1-1,2,4-triazole-1-yl) pyrimidine-2,4-(H1, H3) dione] | – | 91 to 93 °C | – | – | –
